Here are results for 14 molecules from ChEMBL document CHEMBL3352587.

SMILES strings stand for the structures. Calls of active or inactive are those of the source. The rule behind the calls is not given here.

The test system of this assay is Trypanosoma cruzi. Description: Inhibition of recombinant Trypanosoma cruzi trans-sialidase catalytic N-terminal domain preincubated at 1 mM for 10 mins by continuous fluorimetric assay.

For the molecule `COC(=O)c1ccc(O[C@@H]2O[C@H](CO)[C@H](O)[C@H](OCc3nnn[nH]3)[C@H]2O)c([N+](=O)[O-])c1`, the inhibition (in general, the drop in the measured response relative to a control, in per cent) is 18%. With `COC(=O)c1ccc(O[C@@H]2O[C@H](CO)[C@H](O)[C@H](O)[C@H]2O)cc1` the figure was 11%. With `COC(=O)c1ccc(O[C@@H]2O[C@H](CO)[C@H](O)[C@H](OCC(=O)OC(C)(C)C)[C@H]2O)cc1` the entry was “inactive”; with `COC(=O)c1ccc(O[C@@H]2O[C@H](CO)[C@H](O)[C@H](O)[C@H]2O)c([N+](=O)[O-])c1`, 16%; with `COC(=O)c1ccc(O[C@@H]2O[C@H](CO)[C@H](O)[C@H](OCC(=O)OC(C)(C)C)[C@H]2O)c([N+](=O)[O-])c1`, “inactive”. As for `COC(=O)c1ccc(O[C@@H]2O[C@H](CO)[C@H](O)[C@H](OC)[C@H]2O)c([N+](=O)[O-])c1`, the inhibition stood at 16%.

`COC(=O)c1ccc(O[C@@H]2O[C@H](CO)[C@H](O)[C@H](OCc3nnn[nH]3)[C@H]2O)cc1`: the inhibition entry is “inactive”. To `COC(=O)c1ccc(O[C@@H]2O[C@H](CO)[C@H](O)[C@H](OC)[C@H]2O)cc1` belongs 7%; to `Cc1ncc(COP(=O)(O)O)c(C=O)c1O`, 68%. With `CCCCCCCCO[C@@H]1O[C@H](CO)[C@H](O)[C@H](OC)[C@H]1O` the figure was 13%; with `COC(=O)c1ccc(O[C@@H]2O[C@H](CO)[C@H](O)[C@H](OCC#N)[C@H]2O)c([N+](=O)[O-])c1`, “inactive”; with `COC(=O)c1ccc(O[C@@H]2O[C@H](CO)[C@H](O)[C@H](OCC#N)[C@H]2O)cc1`, 7%. With `COC(=O)c1ccc(O[C@@H]2O[C@H](CO)[C@H](O)[C@H](OCC(=O)O)[C@H]2O)cc1` the entry was “inactive”; with `COC(=O)c1ccc(O[C@@H]2O[C@H](CO)[C@H](O)[C@H](OCC(=O)O)[C@H]2O)c([N+](=O)[O-])c1`, 21%.
